Source: patent publication US6608082B1, “Treatment of erectile dysfunction using isoquinoline compound melanocortin receptor ligands” (Lion Bioscience AG, priority 1998, dated 2003)

Target: T1, MCR-1 (Homo sapiens, UniProt Q01726)
T1 construct: expressed in transfected cells; host or cells: HEK 293
Assay: Melanocortin receptor binding assay, competition with 125I-HP 467, HEK 293 cells expressing hMCR-1
Settings: for % Disp. MC-1 10 μM: displacement of 125I-HP 467 at 10 μM isoquinoline compound
Procedure: All cell culture media and reagents were obtained from GibcoBRL (Gaithersburg Md.), except for COSMIC CALF SERUM (HyClone; Logan Utah).
Cells were suspended in PBS, 10% COSMIC CALF SERUM and 1 mM CaCl2. Cell suspensions were prepared at a density of 2×10^4 cells/ml for HEK 293 cells expressing hMCR-3, hMCR-4 or hMCR-5, and 1×10^5 cells/ml for HEK 293 cells expressing hMCR-1. Suspensions were placed in a water bath and allowed to warm to 37° C. for 1 hr.
Binding assays were performed in a total volume of 250 μl for HEK 293 cells. […] To each tube was added 4×10^3 HEK 293 cells expressing hMCR-3, hMCR-4 or hMCR-5, or 2×10^4 cells expressing hMCR-1. Assays were incubated for 2.5 hr at 37° C.
GF/B filter plates were prepared by soaking for at least one hour in 5 mg/ml BSA and 10 mM CaCl2. Assays were filtered using a Brandel 96-well cell harvester (Brandel Inc.; Gaithersburg, Md.). The filters were washed four times with cold 50 mM Tris, pH 7.4, the filter plates were dehydrated for 2 hr and 35 μl of MICROSCINT was added to each well. Filter plates were counted using a Packard Topcount (Packard Instrument Co.) and data analyzed using GraphPad PRISM v2.0 (GraphPad Software Inc.; San Diego Calif.) and Microsoft EXCEL v5.0a (Microsoft Corp.; Redmond Wash.).
To assay isoquinoline compounds, binding assays were performed in duplicate in a 96 well format. […] A 0.2 ml aliquot of suspended cells was added to each well to give the cell numbers indicate above, and the cells were incubated at 37° C. for 2.5 hr. Cells were harvested on GF/B filter plates as described above and counted.

T1 sequence (Q01726 whole entry): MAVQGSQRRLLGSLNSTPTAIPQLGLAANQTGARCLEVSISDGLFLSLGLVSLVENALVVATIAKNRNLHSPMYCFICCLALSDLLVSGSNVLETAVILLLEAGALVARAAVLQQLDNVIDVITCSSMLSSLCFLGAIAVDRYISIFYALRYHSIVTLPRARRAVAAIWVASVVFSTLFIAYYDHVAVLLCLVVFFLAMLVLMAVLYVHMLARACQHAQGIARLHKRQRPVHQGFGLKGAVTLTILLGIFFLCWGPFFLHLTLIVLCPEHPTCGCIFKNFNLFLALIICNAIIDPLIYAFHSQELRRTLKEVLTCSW

| Structure (SMILES) | % Disp. MC-1 10 μM (first of duplicate) [%] | % Disp. MC-1 10 μM (second of duplicate) [%] | % Disp. of 125I-HP 467 (first of duplicate) (10 μM isoquinoline compound, HEK 293 cells expressing MCR-1, duplicate 1) [%] | % Disp. of 125I-HP 467 (second of duplicate) (10 μM isoquinoline compound, HEK 293 cells expressing MCR-1, duplicate 2) [%] |
| --- | --- | --- | --- | --- |
| CNC(CN)CN1Cc2ccccc2C(CNC2CCCCC2)C1c1cccc(F)c1 (stereo not drawn) [TRG 2405-131] | 39.2 | 55.7 | – | – |
| CNC(CN)CN1Cc2ccccc2C(CNC2CCCCC2)C1c1ccoc1 (stereo not drawn) [TRG 2405-132] | 51.6 | 51.7 | – | – |
| CNC(CN)CN1Cc2ccccc2C(CNC2CCCCC2)C1c1cccc(OC)c1 (stereo not drawn) [TRG 2405-135] | 43.9 | 39.7 | – | – |
| CNC(CN)CN1Cc2ccccc2C(CNC2CCCCC2)C1c1cccc(C)c1 (stereo not drawn) [TRG 2405-137] | 40.6 | 46 | – | – |
| CNC(CN)CN1Cc2ccccc2C(CNC2CCCCC2)C1c1cccc([N+](=O)[O-])c1 (stereo not drawn) [TRG 2405-139] | 40.3 | 45.5 | – | – |
| CNC(CN)CN1Cc2ccccc2C(CNC2CCCCC2)C1c1cccc(Oc2ccccc2)c1 (stereo not drawn) [TRG 2405-140] | 67.6 | 67.8 | – | – |
| CNC(CN)CN1Cc2ccccc2C(CNC2CCCCC2)C1c1cccnc1 (stereo not drawn) [TRG 2405-141] | 15 | 16.2 | – | – |
| CNC(CN)CN1Cc2ccccc2C(CNC2CCCCC2)C1c1cnc2ccccc2c1 (stereo not drawn) [TRG 2405-142] | 48.5 | 45.1 | – | – |
| CNC(CN)CN1Cc2ccccc2C(CNC2CCCCC2)C1c1ccc(OCCCN(C)C)cc1 (stereo not drawn) [TRG 2405-144] | 29.6 | 41.7 | – | – |
| CNC(CN)CN1Cc2ccccc2C(CNC2CCCCC2)C1c1ccc(N(C)C)cc1 (stereo not drawn) [TRG 2405-145] | 41.2 | 49.7 | – | – |
| CNC(CN)CN1Cc2ccccc2C(CNC2CCCCC2)C1c1ccc(SC)cc1 (stereo not drawn) [TRG 2405-147] | 31.6 | 38.9 | – | – |
| CCNc1ccc(C2C(CNC3CCCCC3)c3ccccc3CN2CC(CN)NC)cc1 (stereo not drawn) [TRG 2405-149] | 30.1 | 52.3 | – | – |
| CNC(CN)CN1Cc2ccccc2C(CNC2CCCCC2)C1c1ccc(OC)cc1 (stereo not drawn) [TRG 2405-150] | 37.6 | 54.7 | – | – |
| CNC(CN)CN1Cc2ccccc2C(CNC2CCCCC2)C1c1ccc(-c2ccccc2)cc1 (stereo not drawn) [TRG 2405-151] | 61.5 | 57.6 | – | – |
| CNC(CN)CN1Cc2ccccc2C(CNC2CCCCC2)C1c1ccc(CN)cc1 (stereo not drawn) [TRG 2405-154] | 43.1 | 54.8 | – | – |
| CNC(CN)CN1Cc2ccccc2C(CNC2CCCCC2)C1c1ccc(F)cc1 (stereo not drawn) [TRG 2405-155] | 52.3 | 55.6 | – | – |
| CNC(CN)CN1Cc2ccccc2C(CNC2CCCCC2)C1c1ccc(C(C)C)cc1 (stereo not drawn) [TRG 2405-157] | 56.4 | 56.1 | – | – |
| CNC(CN)CN1Cc2ccccc2C(CNC2CCCCC2)C1c1ccc(OC)c2ccccc12 (stereo not drawn) [TRG 2405-158] | 45.6 | 45.8 | – | – |
| CNC(CN)CN1Cc2ccccc2C(CNC2CCCCC2)C1c1ccc(C)cc1 (stereo not drawn) [TRG 2405-159] | 51 | 53.5 | – | – |
| CNC(CN)CN1Cc2ccccc2C(CNC2CCCCC2)C1c1ccc(Oc2ccccc2)cc1 (stereo not drawn) [TRG 2405-162] | 71 | 59.6 | – | – |
| CCCOc1ccc(C2C(CNC3CCCCC3)c3ccccc3CN2CC(CN)NC)cc1 (stereo not drawn) [TRG 2405-163] | 62.4 | 58.1 | – | – |
| CNC(CN)CN1Cc2ccccc2C(CNC2CCCCC2)C1c1ccncc1 (stereo not drawn) [TRG 2405-164] | 24.7 | 33.5 | – | – |
| CNC(CN)CN1Cc2ccccc2C(CNC2CCCCC2)C1c1ccnc2ccccc12 (stereo not drawn) [TRG 2405-165] | 37.3 | 34.6 | – | – |
| CNC(CN)CN1Cc2ccccc2C(CNC2CCCCC2)C1c1ccc(C)s1 (stereo not drawn) [TRG 2405-168] | 44.9 | 24.1 | – | – |
| CNC(CN)CN1Cc2ccccc2C(CNC2CCCCC2)C1c1ccc(C)o1 (stereo not drawn) [TRG 2405-169] | 62.2 | 51.5 | – | – |
| CNC(CN)CN1Cc2ccccc2C(CNC2CCCCC2)C1c1cccc(C)n1 (stereo not drawn) [TRG 2405-171] | 63.1 | 49.7 | – | – |
| CNC(CN)CN1Cc2ccccc2C(CNC2CCCCC2)C1c1ccc2cccc(O)c2n1 (stereo not drawn) [TRG 2405-172] | – | – | 59.4 | 43.9 |
